Data published in patent US20180055816A1, “PYRANONAPHTHOQUINONE COMPOUNDS AND METHODS OF USE THEREOF” (University of Kentucky Research Foundation, priority 2016, published 2018).

Experiments:
S6 phosphorylation = S6 phosphorylation in HCT116 cells (Western blot); format: cell-based, human; details: HCT116, 12 h; 2 μM FB or UCF76-A, 100 nM rapamycin, 0.5 μM AZD8055
Procedure: HCT116 cells were treated with 1 μM MK2206 and 100 nM PD0325901 alone and in combination, 100 nM rapamycin, 0.5 μM AZD8055, 2 μM UCF76-A or 2 μM FB for 12 h followed by Western blot analysis for the indicated proteins.
Cells were lysed in NP-40 lysis buffer (50 mM Tris-HCl, pH 7.5, 150 mM NaCl, 1 mM EDTA, 1% NP-40, 10% glycerol, protease and phosphatase inhibitor cocktail). Western blot analysis were performed using equivalent total protein loadings as described previously. For immunoprecipitation, the cell lysates were incubated with the indicated antibody overnight followed by incubation with a 50% slurry of protein G sepharose beads for 3 h at 4° C. The beads were washed three times with the lysis buffer, and the immunoprecipitated protein complexes were resuspended in 2× Laemmli sample buffer followed by western blot analysis.

Prx1 = biological target: T1, Prx1 (Homo sapiens, UniProt Q06830); assay: Affinity pull-down / binding to Prx1; set-up: endogenous in cells; host or cells: HeLa cell lysates; HCT116 cell lysates; details: streptavidin pull-down, competition, Western blot
T1 sequence (Q06830 1-199): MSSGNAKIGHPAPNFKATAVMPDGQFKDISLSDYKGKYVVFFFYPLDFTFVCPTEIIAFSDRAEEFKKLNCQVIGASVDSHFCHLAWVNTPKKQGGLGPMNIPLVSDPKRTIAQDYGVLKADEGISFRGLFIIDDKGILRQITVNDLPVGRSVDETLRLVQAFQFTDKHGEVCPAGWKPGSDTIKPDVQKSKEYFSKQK
Procedure: The precipitates were resolved by SDS-PAGE, and the gel was stained with Coomassie blue. (C) Sequences illustrating amino acids and peptides of Prx1 and Grx3 identified by mass spectrometry analysis. The unique bands as shown by d7-pull down in the experiment for FIG. 20B were excised and subjected to in-gel tryptic digestion and analysis by MS, wherein the identified amino acids and peptides are shown in red characters. (D) Western blot illustrating that HCT116 cell lysates were incubated with different concentrations of d5 or d7 in the absence or presence of a ten-fold excess of FB for 3 h, followed by pull-down with streptavidin-agarose and Western blot analysis for the indicated proteins.
FIGS. 21A-D show images illustrating that the active probe d7 binds to and co-localizes with Prx1 and Grx3. (A) and (B) The recombinant Prx1 (A) or Grx3 (B) was incubated with d7 for 2 hours, followed by streptavidin pull down and Western blot analysis for the indicated proteins. (C) and (D) HCT116 cells were incubated with 25 μM d5, 25 μM d7 or DMSO as control for 5 hours, followed by confocal sections of the cells staining for Prx1 (C) or Grx3 (D) (red), biotin (green) and DAPI (blue). Scale bars, 10 μm.
HeLa cell pellets were purchased from National Cell Culture Center (Minneapolis, Minn.) and lysed in 20 ml of the NP-40 lysis buffer. […]

binding to Prx1 (Prx1): directly targets
Structure (SMILES): CCCC1OC2CC(=O)OC2C2=C1C(=O)c1c(O)cccc1C2=O (centres unmarked) [FB, frenolicin B]
inhibition of S6 phosphorylation (S6 phosphorylation): did not inhibit
